# Assay results as given in patent publication US9073903B2, “Imidazole-2,4-dione inhibitors of casein kinase 1” (Jasco Pharmaceuticals, LLC, priority 2010, dated 2015).
# Like-named read-outs stand apart in the source and are kept apart here.
# Key:
# [1] = tested on: HCT116 cells; assay: Inhibition of HCT116 cells (MTS cell proliferation); format: cell-based; conditions: for OD value 1 / OD value 2: 490 nm; for OD value 1 / OD value 2 / inhibition at 0.4 µM / inhibition at 0.8 µM / inhibition at 1.6 µM / inhibition at 3.2 µM / inhibition at 6.25 µM / inhibition at 12.5 µM / inhibition at 25 µM / inhibition at 50 µM / inhibition at 100 µM: 72 h; for inhibition at 0.4 µM / inhibition at 0.8 µM / inhibition at 1.6 µM / inhibition at 3.2 µM / inhibition at 6.25 µM / inhibition at 12.5 µM / inhibition at 25 µM / inhibition at 50 µM / inhibition at 100 µM / IC50: Homo sapiens, HCT-116
# Procedure: Inhibition of HCT116 Cells Cells: HCT116 cells, ATCC Passage unknown, Mycoplasma free. Medium: DMEM Medium (GIBCO Cat #11995073) supplemented with 10% fetal bovine serum (Hyclone Cat #SH30396.03). Seeding: 750 cells/well (100 μL) into 96-wells plate, incubated overnight at 37° C. in a humidified, 5% CO2 atmosphere. Treatment: Test compounds and Gemcitabine were prepared in a serial dilution (1:2) by culture medium. Fifty microliters (50 uL) of serially diluted solutions were added into each well. The final concentrations of the positive control and test compounds were shown in the graphs. The cells were incubated for 72 hours after addition of the test compounds. MTS: 15 uL of MTS solution (Promega Cat #G5430) was added into each well and incubated with cells for 4 hours at 37° C. in a humidified, 5% CO2 atmosphere. Measurement: Absorbance at 490 nm was measured using MD Spectramax Plus384 spectrophotometer. The regression curves were calculated by the GraphPad Prism 5 using “log(inhibitor) vs response—variable slope”. Calculation: % of inhibition=(ODzero ctrl−OD compound)/ODzero ctrl*100.
# [2] = tested on: DU145 cells; assay: Inhibition of DU145 cells (MTS cell proliferation); format: cell-based; conditions: for inhibition at 0.4 µM / inhibition at 0.8 µM / inhibition at 1.6 µM / inhibition at 3.2 µM / inhibition at 6.25 µM / inhibition at 12.5 µM / inhibition at 25 µM / inhibition at 50 µM / inhibition at 100 µM / IC50: Homo sapiens, DU-145; for inhibition at 0.4 µM: 0.400 uM; for inhibition at 0.8 µM: 0.800 uM; for inhibition at 1.6 µM: 1.600 uM; for inhibition at 3.2 µM: 3.200 uM; for inhibition at 6.25 µM: 6.250 uM; for inhibition at 12.5 µM: 12.500 uM
# Procedure: Inhibition of DU145 Cells Cells: DU145 cells, ATCC Passage unknown, Mycoplasma free. Medium: DMEM Medium (GIBCO Cat #11995073) supplemented with 10% fetal bovine serum (Hyclone Cat #SH30396.03). Seeding: 750 cells/well (100 μL) into 96-wells plate, incubated overnight at 37° C. in a humidified, 5% CO2 atmosphere. Treatment: Test compounds and Gemcitabine were prepared in a serial dilution (1:2) by culture medium. Fifty microliters (50 uL) of serially diluted solutions were added into each well. The final concentrations of the positive control and test compounds were shown in the graphs. The cells were incubated for 72 hours after addition of the test compounds. MTS: 15 uL of MTS solution (Promega Cat #G5430) was added into each well and incubated with cells for 4 hours at 37° C. in a humidified, 5% CO2 atmosphere. Measurement: Absorbance at 490 nm was measured using MD Spectramax Plus384 spectrophotometer. The regression curves were calculated by the GraphPad Prism 5 using “log(inhibitor) vs response—variable slope”.
# [3] = 72 hours, replicate 1, read-out: % of inhibition 1
# [4] = 72 hours, replicate 2, read-out: % of inhibition 2
smiles,measurement,setting,value
Nc1ccn([C@@H]2O[C@H](CO)[C@@H](O)C2(F)F)c(=O)n1 [Gemcitabine],OD value 1,"[1]; 0.400 uM, replicate 1",0.799
same,OD value 2,"[1]; 0.400 uM, replicate 2",0.766
same,OD value 1,"[1]; 0.800 uM, replicate 1",0.619
same,OD value 2,"[1]; 0.800 uM, replicate 2",0.723
same,OD value 1,"[1]; 1.600 uM, replicate 1",0.452
same,OD value 2,"[1]; 1.600 uM, replicate 2",0.535
same,OD value 1,"[1]; 3.200 uM, replicate 1",0.083
same,OD value 2,"[1]; 3.200 uM, replicate 2",0.083
same,OD value 1,"[1]; 6.250 uM, replicate 1",0.076
same,OD value 2,"[1]; 6.250 uM, replicate 2",0.065
same,OD value 1,"[1]; 12.500 uM, replicate 1",0.065
same,OD value 2,"[1]; 12.500 uM, replicate 2",0.063
same,OD value 1,"[1]; 25.000 uM, replicate 1",0.075
same,OD value 2,"[1]; 25.000 uM, replicate 2",0.061
same,OD value 1,"[1]; 50.000 uM, replicate 1",0.036
same,OD value 2,"[1]; 50.000 uM, replicate 2",0.046
same,OD value 1,"[1]; 100.000 uM, replicate 1",0.037
same,OD value 2,"[1]; 100.000 uM, replicate 2",0.037
same,inhibition at 0.4 µM,"[1]; 0.400 uM, replicate 1, read-out: % of inhibition 1",18.8%
same,inhibition at 0.4 µM,"[1]; 0.400 uM, replicate 2, read-out: % of inhibition 2",20.9%
same,inhibition at 0.8 µM,"[1]; 0.800 uM, replicate 1, read-out: % of inhibition 1",37.2%
same,inhibition at 0.8 µM,"[1]; 0.800 uM, replicate 2, read-out: % of inhibition 2",25.3%
same,inhibition at 1.6 µM,"[1]; 1.600 uM, replicate 1, read-out: % of inhibition 1",54.1%
same,inhibition at 1.6 µM,"[1]; 1.600 uM, replicate 2, read-out: % of inhibition 2",44.7%
same,inhibition at 3.2 µM,"[1]; 3.200 uM, replicate 1, read-out: % of inhibition 1",91.6%
same,inhibition at 3.2 µM,"[1]; 3.200 uM, replicate 2, read-out: % of inhibition 2",91.4%
same,inhibition at 6.25 µM,"[1]; 6.250 uM, replicate 1, read-out: % of inhibition 1",92.3%
same,inhibition at 6.25 µM,"[1]; 6.250 uM, replicate 2, read-out: % of inhibition 2",93.3%
same,inhibition at 12.5 µM,"[1]; 12.500 uM, replicate 1, read-out: % of inhibition 1",93.4%
same,inhibition at 12.5 µM,"[1]; 12.500 uM, replicate 2, read-out: % of inhibition 2",93.5%
same,inhibition at 25 µM,"[1]; 25.000 uM, replicate 1, read-out: % of inhibition 1",92.4%
same,inhibition at 25 µM,"[1]; 25.000 uM, replicate 2, read-out: % of inhibition 2",93.7%
same,inhibition at 50 µM,"[1]; 50.000 uM, replicate 1, read-out: % of inhibition 1",96.4%
same,inhibition at 50 µM,"[1]; 50.000 uM, replicate 2, read-out: % of inhibition 2",95.2%
same,inhibition at 100 µM,"[1]; 100.000 uM, replicate 1, read-out: % of inhibition 1",96.3%
same,inhibition at 100 µM,"[1]; 100.000 uM, replicate 2, read-out: % of inhibition 2",96.2%
same,IC50,"[1]; Table 17, read-out: HCT-116* 50% inhibition concentration",1.29 µM
same,IC50,"[1]; Table 26, HCT116, 72 hours, read-out: 50% viability conc.",1.29 µM
same,IC50,"[1]; Table 26, HCT116, 72 hours, read-out: IC50",1.42 µM
same,Maximal inhibition %,"[1]; Table 26, HCT116, 72 hours",96.25%
same,inhibition at 0.4 µM,[2]; [3],17.4%
same,inhibition at 0.4 µM,[2]; [4],15.6%
same,inhibition at 0.8 µM,[2]; [3],35.2%
same,inhibition at 0.8 µM,[2]; [4],32.9%
same,inhibition at 1.6 µM,[2]; [3],59%
same,inhibition at 1.6 µM,[2]; [4],54.3%
same,inhibition at 3.2 µM,[2]; [3],95.5%
same,inhibition at 3.2 µM,[2]; [4],96.2%
same,inhibition at 6.25 µM,[2]; [3],96.8%
same,inhibition at 6.25 µM,[2]; [4],96.2%
same,inhibition at 12.5 µM,[2]; [3],96.6%
same,inhibition at 12.5 µM,[2]; [4],97.3%
same,inhibition at 25 µM,[2]; [3],97%
same,inhibition at 25 µM,[2]; [4],96.2%
same,inhibition at 50 µM,[2]; [3],97.4%
same,inhibition at 50 µM,[2]; [4],98.9%
same,inhibition at 100 µM,[2]; [3],97.9%
same,inhibition at 100 µM,[2]; [4],97.2%
same,IC50,"[2]; Table 17, read-out: DU145* 50% inhibition concentration",1.28 µM
same,IC50,"[2]; Table 26, DU145, 72 hours, read-out: 50% viability conc.",1.28 µM
same,IC50,"[2]; Table 26, DU145, 72 hours, read-out: IC50",1.17 µM
same,Maximal inhibition %,"[2]; Table 26, DU145, 72 hours",97.55%
